Experimental findings from US20040235717A1, “Suppression of androgen receptor transactivation through new pathways to ar and ar coactivators and repressors” (priority 2001, published 2004) are described below.

Type in all cases: cell-based
The test system of one assay is AR transactivation. Briefly: AR transactivation, MMTV-luc / (ARE)4-luc luciferase reporter assay. Particulars: LNCaP; MMTV-luc and (ARE)4-luc; 10 nM DHT. Background: A reporter such as luciferase makes a cellular process visible.
Assay [1] has as its target T1, interaction between AR and ARA70 (Homo sapiens, UniProt P10275).
T1 construct: VP16 fused to the AR aa 36-918 (VP16-AR); expressed in transfected cells; host or cells: DU145
T1 sequence (P10275 36-920): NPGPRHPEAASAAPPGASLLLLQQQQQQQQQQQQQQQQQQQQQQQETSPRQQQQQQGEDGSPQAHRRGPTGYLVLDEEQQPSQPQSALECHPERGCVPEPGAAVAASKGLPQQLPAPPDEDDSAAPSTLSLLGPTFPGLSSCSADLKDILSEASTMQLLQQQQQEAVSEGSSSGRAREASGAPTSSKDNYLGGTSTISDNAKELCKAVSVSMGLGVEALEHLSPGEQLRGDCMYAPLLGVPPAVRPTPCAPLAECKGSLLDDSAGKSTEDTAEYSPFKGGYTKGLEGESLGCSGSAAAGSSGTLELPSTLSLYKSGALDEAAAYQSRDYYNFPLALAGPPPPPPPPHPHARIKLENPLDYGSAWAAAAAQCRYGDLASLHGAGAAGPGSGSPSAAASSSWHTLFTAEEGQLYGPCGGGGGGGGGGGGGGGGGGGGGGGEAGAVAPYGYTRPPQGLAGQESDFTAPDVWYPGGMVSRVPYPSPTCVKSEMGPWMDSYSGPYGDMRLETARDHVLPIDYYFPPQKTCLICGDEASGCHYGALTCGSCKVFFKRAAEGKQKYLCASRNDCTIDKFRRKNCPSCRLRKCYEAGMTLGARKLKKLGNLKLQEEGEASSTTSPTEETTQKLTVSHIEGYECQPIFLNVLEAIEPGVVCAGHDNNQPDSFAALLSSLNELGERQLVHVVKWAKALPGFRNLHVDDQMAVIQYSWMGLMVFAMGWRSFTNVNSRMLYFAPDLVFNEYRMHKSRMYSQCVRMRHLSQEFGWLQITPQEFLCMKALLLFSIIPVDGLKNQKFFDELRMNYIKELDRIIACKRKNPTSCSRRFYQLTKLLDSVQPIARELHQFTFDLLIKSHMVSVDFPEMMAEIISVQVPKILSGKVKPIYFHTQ
Briefly: Mammalian two-hybrid assay GAL4-ARA70 / VP16-AR in DU145 cells (pG5CAT). The following applies: 1 nM DHT. An excerpt: 257. […] Onate, S. A. et al., Science 270, 1354-1357 (1995); Voegel, J. J. et al., EMBO J. 15, 3667-3675 (1996); Yeh, S. et al., Proc. Natl. Acad. Sci. USA 93, 5517-5521(1996); Yeh, S. et al., Proc. Natl. Acad. Sci. USA 95, 5527-5532 (1998); Fujimoto, N. et al., J. BioI. Chem. 274, 8316-8321 (1999); Miyamoto, H. et al., Proc. Natl. Acad. Sci. USA 95 11083-11088 (1998); Kang, H. Y. et al., J. BioI. Chem. 274, 8570-8576 (1999); Yeh, S. et al., Biochem. Biophys. Res. Commun. 248, 361-367 (1998). […] Yeh, S. et al., Proc. Natl. Acad. Sci. USA 93, 5517-5521(1996); Yeh, S. et al., Proc. Natl. Acad. Sci. USA 95, 5527-5532 (1998). […] The interaction between AR and ARA70 was determined by CAT assay using pG5CAT as reporter. […] In contrast, the addition of […] between the AR and ARA70 (FIG. 4a, lane 2 vs 5 and lane 6 vs 8). Similar repression effects also occurred when we replaced ARA70 with other AR coactivators, such as ARA54 or TIF2. Kang, H. Y. et al., J. BioI. Chem. 274, 8570-8576 (1999); Voegel, J. J. et al., EMBO J. 15, 3667-3675 (1996). cAkt and dAkt, however, had very little effect on the interaction between GAL4 fused AR-LBD653-918 and VP16-ARA 70 (VP16 fused ARA70), VP16-ARA54, or VP16-TIF2.
GAL4DBD fused to ARA70 aa 176-401 (GAL4-ARA70), and VP16 fused to the AR aa 36-918 (VP16-AR) were transfected into DU145 cells in the presence or absence of cAkt, dAkt, and LY294002.

For a further assay, the system named is Akt. Briefly: Akt activity in LNCaP cells, Western blot with phospho-Akt (Ser473) antibody. The following applies: LNCaP cells stably transfected with dAkt. Here is the method: 18. […] (A) Akt suppressed androgen/AR-induced p21 promoter activity. […] (B) Androgen/AR-induced PC-3(AR)6 apoptosis and p21 protein expression was blocked by Akt PC-3(AR)6 was transfected with pCDNA3, cAkt, or dAkt, as indicated, for 16 h. […] (C) AR-induced p21 protein expression was enhanced by dAkt in LNCaP cells. […] LNCaP stable transfection with dAkt was confirmed by western blot assay using phospho-Akt (Ser473) antibody. […] TPA was then added for another 24 h and cell apoptosis was determined by TUNEL assay. […] IGF-1 was added for another 30 min, followed by 10 nM TPA treatment for another 24 h. The apoptosis was determined by TUNEL assay. The data are means±s.d. from three independent experiments.
31. […] (D) The LNCaP cells were transfected with plasmids as indicated for 16 h, and the medium was changed to 0.1% CDS media for 2 days. The cell apoptosis was determined by TUNEL assay (E) The LNCaP cells were transfected with plasmids as indicated for 16 h, harvested, and the cell extracts were subjected to SDS-PAGE. The Akt activity was determined by Western blotting using phospho(S473)-Akt antibody. (F) The U87MG cells were transfected with plasmids as indicated for 16 h, and the medium was changed 0.1% CDS media for 2 days. The cell apoptosis was determined by TUNEL assay. Data for luciferase activity and apoptosis are means±s.d. from three independent experiments.

Entries after “also recorded” stand apart in the source; their conditions may differ.

For “dAkt: dominant-negative Akt, a kinase deficient mutant, K179A”, the “Effect on AR transactivation” value in the assay on AR transactivation was “enhanced AR transactivation in both MMTV-Luc and (ARE)4-Luc”. In assay [1], the “Interaction between AR and ARA70 (CAT activity)” value was “further enhanced the interaction of AR and ARA70; also recorded: further enhanced the interaction between the AR and ARA70”. Further, the “Reduction in Akt activity” value in the assay with Akt was found to be 50%.
